Measurements: ChEMBL document CHEMBL4052672, “Discovery of β-d-2'-deoxy-2'-dichlorouridine nucleotide prodrugs as potent inhibitors of hepatitis C virus replication” (Bioorg Med Chem Lett, 2017)
The source made the active and inactive calls. The rule behind the calls is not given here.

Columns and labels:
[1] = Stability in human intestinal […] S9 fraction assessed as half life at 2 uM by LC-MS/MS method; type: ADME
[2] = Stability in human liver S9 fraction assessed as half life at 2 uM by LC-MS/MS method; type: ADME, tissue-based
Hepatitis C virus [3] = test: Antiviral activity against HCV genotype 1b subgenomic replicon infected in human HuH7 Luc-neo cells assessed as inhibition of viral replication by luciferase reporter gene assay; type: functional, cell-based, Hepacivirus hominis; details: Huh-7
[4] = Cytotoxic activity against human HuH7 cells incubated for 6 days by CCK8 assay; type: cell-based, Huh-7
[5] = Stability in human whole blood assessed as half life at 2 uM by LC-MS/MS method; type: ADME
[6] = (§1) Inhibition of HCV genotype 1b NS5B Cdelta21 RNA dependent RNA polymerase using cIRES, GTP, UTP and CTP incubated for 30 mins in presence of [3H]-ATP/ATP mixture by scintillation counting method; set-up: species or system Hepatitis C virus subtype 1b
Hepatitis C virus [7] = test: Antiviral activity against HCV genotype 1b subgenomic replicon; type: functional, Hepacivirus hominis
[8] = tested on: Hepatitis C virus subtype 1b; test: as §1
Hepatitis C virus [9] = test: Antiviral activity against HCV genotype 6a subgenomic replicon infected in human Huh7-Lunet cells assessed as inhibition of viral replication by luciferase reporter gene assay; type: functional, cell-based, Hepacivirus hominis; details: Huh-7
Canis familiaris [10] = test: Drug metabolism in dog liver assessed as ((2R,3R,5R)-5-(4-amino-2-oxopyrimidin-1(2H)-yl)-4,4-dichloro-3-hydroxytetrahydrofuran-2-yl)methyl tetrahydrogen triphosphate formation at 50 mg/kg/day, po for 4 days; type: ADME, organism-based, Canis lupus familiaris; details: in vivo, 96 h
Hepatitis C virus [11] = test: Antiviral activity against HCV genotype 2a subgenomic replicon; type: functional, Hepacivirus hominis
Hepatitis C virus [12] = test: Antiviral activity against HCV genotype 3a subgenomic replicon infected in human Huh7-Lunet cells assessed as inhibition of viral replication by luciferase reporter gene assay; type: functional, cell-based, Hepacivirus hominis; details: Huh-7
Hepatitis C virus [13] = test: Antiviral activity against HCV genotype 1b subgenomic replicon expressing NS5B RNA dependent RNA polymerase S282T mutant infected in human HuH7 Luc-neo cells assessed as inhibition of viral replication by luciferase reporter gene assay relative to wild type HCV genotype 1b; type: functional, Hepacivirus hominis
Hepatitis C virus [14] = test: Antiviral activity against HCV genotype 4a subgenomic replicon infected in human Huh7-Lunet cells assessed as inhibition of viral replication by luciferase reporter gene assay; type: functional, cell-based, Hepacivirus hominis; details: Huh-7
[15] = Drug metabolism in human hepatocytes assessed as ((2R,3R,5R)-4,4-dichloro-5-(2,4-dioxo-3,4-dihydropyrimidin-1(2H)-yl)-3-hydroxytetrahydrofuran-2-yl)methyl tetrahydrogen triphosphate formation at 10 uM after 1 to 24 hrs by LC-MS/MS method; type: ADME, cell-based, Hepatocyte
Hepatitis C virus [16] = test: Antiviral activity against HCV genotype 1a subgenomic replicon infected in human Huh7-Lunet cells assessed as inhibition of viral replication by luciferase reporter gene assay; type: functional, cell-based, Hepacivirus hominis; details: subtype 1a, Huh-7
[17] = Drug metabolism in human hepatocytes assessed as ((2R,3R,5R)-5-(4-amino-2-oxopyrimidin-1(2H)-yl)-4,4-dichloro-3-hydroxytetrahydrofuran-2-yl)methyl tetrahydrogen triphosphate formation at 10 uM after 1 to 24 hrs by LC-MS/MS method; type: ADME, cell-based, Hepatocyte
Hepatitis C virus [18] = test: Antiviral activity against HCV genotype 5a subgenomic replicon infected in human Huh7-Lunet cells assessed as inhibition of viral replication by luciferase reporter gene assay; type: functional, cell-based, Hepacivirus hominis; details: Huh-7
Canis familiaris [19] = test: Drug metabolism in dog liver assessed as ((2R,3R,5R)-4,4-dichloro-5-(2,4-dioxo-3,4-dihydropyrimidin-1(2H)-yl)-3-hydroxytetrahydrofuran-2-yl)methyl tetrahydrogen triphosphate formation at 50 mg/kg/day, po for 4 days measured at 4 hrs on day 4; type: ADME, organism-based, Canis lupus familiaris; details: in vivo
Canis familiaris [20] = test: Drug metabolism in dog liver assessed as ((2R,3R,5R)-5-(4-amino-2-oxopyrimidin-1(2H)-yl)-4,4-dichloro-3-hydroxytetrahydrofuran-2-yl)methyl tetrahydrogen triphosphate formation at 50 mg/kg/day, po for 4 days measured at 4 hrs on day 4; type: ADME, organism-based, Canis lupus familiaris; details: in vivo
[21] = Inhibition of HCV genotype 1b NS5B RNA dependent RNA polymerase; set-up: species or system Hepatitis C virus subtype 1b
[22] = Drug metabolism in human hepatocytes assessed as cytidine triphosphate metabolite formation at 10 uM after 1 to 24 hrs by LC-MS/MS method; type: ADME, cell-based, Hepatocyte
[23] = Drug metabolism in human hepatocytes assessed as ((2R,3R,4R,5R)-5-(2,4-dioxo-3,4-dihydropyrimidin-1(2H)-yl)-4-fluoro-3-hydroxy-4-methyltetrahydrofuran-2-yl)methyl tetrahydrogen triphosphate formation at 10 uM after 1 to 24 hrs by LC-MS/MS method; type: ADME, cell-based, Hepatocyte

Compound	half-life at 2 µM [1] [min]	half-life at 2 µM [2] [min]	EC50 (Hepatitis C virus [3]) [nM]	CC50 at 144 h [4] [nM]	half-life at 2 µM [5] [min]	also measured
C[C@H](NP(=O)(OC[C@H]1O[C@@H](n2ccc(=O)[nH]c2=O)C(Cl)(Cl)[C@@H]1O)Oc1ccccc1)C(=O)OC1CCCCC1 (single isomer, unassigned)	70	3	160	> 100000	20	
Nc1ccn([C@@H]2O[C@H](COP(=O)(O)OP(=O)(O)OP(=O)(O)O)[C@@H](O)C2(Cl)Cl)c(=O)n1						Ki [6]: 200 nM
CC(C)OC(=O)[C@H](C)NP(=O)(OC[C@H]1O[C@@H](n2ccc(=O)[nH]c2=O)C(F)(F)[C@@H]1O)Oc1ccccc1 (single isomer, unassigned)						EC50 (Hepatitis C virus [7]): 970 nM
CC[C@H](C)OC(=O)[C@H](C)NP(=O)(OC[C@H]1O[C@@H](n2ccc(=O)[nH]c2=O)C(Cl)(Cl)[C@@H]1O)Oc1ccccc1 (single isomer, unassigned)	140	7	83	> 100000	11	
O=c1ccn([C@@H]2O[C@H](COP(=O)(O)OP(=O)(O)OP(=O)(O)O)[C@@H](O)C2(Cl)Cl)c(=O)[nH]1						inhibition [8]: Active
CC(C)OC(=O)[C@H](C)N[P@@](=O)(OC[C@H]1O[C@@H](n2ccc(=O)[nH]c2=O)C(Cl)(Cl)[C@@H]1O)Oc1ccccc1	1380	43	56	> 100000	27	EC50 (Hepatitis C virus [9]): 69 nM; Drug metabolism (Canis familiaris [10]): Metabolite_Detected; EC50 (Hepatitis C virus [11]): 18 nM; EC50 (Hepatitis C virus [12]): 68 nM; Ratio EC50 (Hepatitis C virus [13]): 4.1; EC50 (Hepatitis C virus [14]): 66 nM; Drug metabolism [15]: Metabolite_Detected; EC50 (Hepatitis C virus [16]): 70 nM; Drug metabolism [17]: Metabolite_Detected; EC50 (Hepatitis C virus [18]): 53 nM; Drug metabolism (Canis familiaris [19]): 3.5 µM; Drug metabolism (Canis familiaris [20]): 0.93 µM
CC(C)OC(=O)[C@H](C)NP(=O)(OC[C@H]1O[C@@H](n2ccc(=O)[nH]c2=O)C(Cl)(Cl)[C@@H]1O)Oc1cccc(C2(C)CC2)c1 (single isomer, unassigned)	20	4	230	> 100000	12	
C[C@@]1(F)[C@H](O)[C@@H](COP(=O)(O)OP(=O)(O)OP(=O)(O)O)O[C@H]1n1ccc(=O)[nH]c1=O [GS-461203]						Ki [21]: 490 nM
O=c1ccn([C@@H]2O[C@H](CO)[C@@H](O)C2(Cl)Cl)c(=O)[nH]1			> 50000	> 100000		
CC(C)OC(=O)[C@H](C)NP(=O)(OC[C@H]1O[C@@H](n2ccc(=O)[nH]c2=O)C(Cl)(Cl)[C@@H]1O)Oc1cccc(C2CCC2)c1 (single isomer, unassigned)	20	3	220	> 100000	8	
CC[C@@H](C)OC(=O)[C@H](C)NP(=O)(OC[C@H]1O[C@@H](n2ccc(=O)[nH]c2=O)C(Cl)(Cl)[C@@H]1O)Oc1ccccc1 (single isomer, unassigned)	140	8	110	> 100000	11	
CC(C)OC(=O)[C@H](C)NP(=O)(OC[C@H]1O[C@@H](n2ccc(=O)[nH]c2=O)C(Cl)(Cl)[C@@H]1O)Oc1ccc(C2(C)CC2)cc1 (single isomer, unassigned)	60	10	340	62000	8	
CC(C)OC(=O)[C@H](C)N[P@@](=O)(OC[C@H]1O[C@@H](n2ccc(=O)[nH]c2=O)[C@](C)(F)[C@@H]1O)Oc1ccccc1						Drug metabolism [22]: Metabolite_Detected; EC50 (Hepatitis C virus [9]): 180 nM; EC50 (Hepatitis C virus [11]): 50 nM; EC50 (Hepatitis C virus [12]): 130 nM; Ratio EC50 (Hepatitis C virus [13]): 7.8; EC50 (Hepatitis C virus [14]): 230 nM; EC50 (Hepatitis C virus [7]): 92 nM; EC50 (Hepatitis C virus [16]): 170 nM; EC50 (Hepatitis C virus [18]): 120 nM; Drug metabolism [23]: Metabolite_Detected
O=c1ccn([C@@H]2O[C@H](COP(=O)(O)OP(=O)(O)OP(=O)(O)O)[C@@H](O)C2(F)F)c(=O)[nH]1						IC50 [21]: > 100000 nM
